In general, IC50 refers to the concentration needed to halve the response being measured. Low readings indicate higher potency, high ones lower potency.

The results in this text go back to article PMC10914727 (Nature Communications, 2024).

Assay [1] addresses T1, endogenous GABAB receptor in CGNs (Mus musculus, UniProt Q9WV18).
T1 construct: gene Gabbr1; native receptor, primary cerebellar granule neurons
Kind of assay: cell-based. Also noted: species or system primary cerebellar granule neurons (CGNs). Particulars: with 20 uM baclofen. From the text: We have further validated these G protein sensors by measuring the potency of different orthosteric GABAB receptor ligands (Fig. 3a) in both CGNs and HEK293 cells. […] Similar results were obtained in the hippocampal neurons and cortical neurons (Supplementary Fig. 4b–d and Supplementary Table 1). […] Dotted line is the correlation of pEC50 determined with HEK293 cells. […] Data are mean ± SEM from at least three biologically independent experiments each performed in triplicate and analysed using one-way ANOVA with a Dunnett’s post-hoc multiple comparison test to determine significance. […] The raw data and p-values are available in source data provided as a Source Data file. Fig. 1 Design and validation of the Gi/o protein sensors in neurons. a Scheme of the BRET-based sensors to detect the activity of the endogenous GPCR in neurons. b Scheme of the Gαi/o^Nluc and ^VenusGγ2 constructs co-transfected in the neurons. Sequence of the linker (L) before and after Nluc was indicated. […] The data are representative of BRET ratios from five independent experiments. e Representative fluorescent images of Venus and DAPI in CGNs transfected with GαoA^Nluc and ^VenusGγ2 or in HEK293 cells transfected with GαoA^Nluc, Gβ1 and ^VenusGγ2 from three independent experiments. […] The data are representative of the mean ± SEM of BRET ratios from three independent experiments. […]

For assay [2], the target named is T2, endogenous cannabinoid CB1 receptor in CGNs (Mus musculus, UniProt P47746).
T2 construct: gene Cnr1; native receptor, primary cerebellar granule neurons
Kind of assay: cell-based. Also noted: species or system mouse primary cerebellar granule neurons (CGNs).

Assay [3] concerns the target T3, cannabinoid CB1 receptor (Mus musculus, UniProt P47746).
T3 construct: gene Cnr1; mouse CB1 cDNA expressed in HEK293 cells
Nature of the assay: cell-based. Also noted: species or system HEK293. An excerpt: The raw data and p-values are available in source data provided as a Source Data file.

Assay [4] has as its target T2, endogenous cannabinoid CB1 receptor in CGNs. Also on record: species or system mouse primary cerebellar granule neurons (CGNs). As to conditions: agonist.
Assay [5] addresses T3, cannabinoid CB1 receptor. Kind of assay: cell-based. Also on record: BRET between Galpha-Nluc and Venus-Ggamma2, agonist-induced Gi1 or GoA response of transfected mouse CB1. Particulars: read-out: Emax ± SEM (n) / Bay 59-3074. The method, then: Fig. 6 Difference of Gi1 and GoA responses by cannabinoid receptor CB1 agonists. a Detection of CB1 receptor in cell membranes of CGNs, mock-transfected HEK293 cells and HEK293 cells transfected with mouse CB1 cDNA (80 ng/well in 96-well plate), by western blotting. Values are mean ± SEM normalized as fold of CB1 expression in CGNs from three independent experiments. b Percentage of change in BRET ratio between Gα^Nluc and ^VenusGγ2 induced by [compound left out] in HEK293 cells (CB1 cDNA; 80 ng/well per 96-well plate) or CGNs for the indicated Gαi1, Gαi2, Gαi3, GαoA, GαoB or Gαz sensors (amounts of cDNA as in Fig. 2a). […] Data are analysed using unpaired t-test (two-tailed) to determine significance. ****p < 0.0001, *p < 0.05 and not significant (ns). c, d Change of BRET signal between Gα^Nluc and ^VenusGγ2 induced by the indicated CB1 receptor agonists in HEK293 cells and CGNs measured by Gi1 and GoA sensors. […] Inset, correlation of the agonist potencies (pEC50) between HEK293 cells and CGNs determined by the G protein sensors. Dotted lines are the correlation of pEC50 determined with HEK293 cells. […] Values are mean ± SEM normalized as fold of […] expression in CGNs from four independent experiments. c Expression of the Nluc-tagged Gα transfected in CGNs or in HEK293 cells in (a), measured by the luminescent signal at 480 nm. […]

Assay [6] addresses T4, endogenous GABAB receptor in cortical neurons (Mus musculus, UniProt Q9WV18).
T4 construct: gene Gabbr1; native receptor, primary cortical neurons
Nature of the assay: cell-based. Also on record: species or system primary cortical neurons. Particulars: read-out: pEC50 cortical neurons (converted). From the text:
(§1) Sequence of the linker (L) before and after Nluc was indicated. […] The raw data and p-values are available in source data provided as a Source Data file.

Assay [7] addresses T5, endogenous GABAB receptor in hippocampal neurons (Mus musculus, UniProt Q9WV18).
T5 construct: gene Gabbr1; native receptor, primary hippocampal neurons
Kind of assay: cell-based. Particulars: read-out: pEC50 hippocampal neurons (converted). Also on record: species or system primary hippocampal neurons; BRET G protein sensor (Galpha-Nluc / Venus-Ggamma2), agonist-induced change of BRET.
Excerpt: as §1

Assay [8] concerns the target T1, endogenous GABAB receptor in CGNs. Nature of the assay: cell-based. Also noted: species or system primary cerebellar granule neurons (CGNs); BRET G protein sensor (Galpha-Nluc / Venus-Ggamma2), agonist-induced change of BRET. An excerpt:
(§2) Dotted line is the correlation of pEC50 determined with HEK293 cells. […] Data are mean ± SEM from at least three biologically independent experiments each performed in triplicate and analysed using one-way ANOVA with a Dunnett’s post-hoc multiple comparison test to determine significance. […] Sequence of the linker (L) before and after Nluc was indicated. […] The raw data and p-values are available in source data provided as a Source Data file.

Assay [9] has as its target T6, GABAB receptor (GB1 subunit) (Rattus norvegicus, UniProt Q9Z0U4).
T6 construct: gene Gabbr1; HA-tagged rat GB1 with Flag-tagged rat GB2 expressed in HEK293 cells; with GABAB2 (GB2)
Kind of assay: cell-based. Also noted: species or system HEK293; BRET G protein sensor (Galpha-Nluc / Venus-Ggamma2), agonist-induced change of BRET.
Excerpt: as §2

Several values for one entry are separate records, joined by “and”; a condition that tells them apart may be missing. Equal entries are not always repeated. Where two headings read alike, the source gives them in different places.

T4 sequence (Q9WV18 whole entry): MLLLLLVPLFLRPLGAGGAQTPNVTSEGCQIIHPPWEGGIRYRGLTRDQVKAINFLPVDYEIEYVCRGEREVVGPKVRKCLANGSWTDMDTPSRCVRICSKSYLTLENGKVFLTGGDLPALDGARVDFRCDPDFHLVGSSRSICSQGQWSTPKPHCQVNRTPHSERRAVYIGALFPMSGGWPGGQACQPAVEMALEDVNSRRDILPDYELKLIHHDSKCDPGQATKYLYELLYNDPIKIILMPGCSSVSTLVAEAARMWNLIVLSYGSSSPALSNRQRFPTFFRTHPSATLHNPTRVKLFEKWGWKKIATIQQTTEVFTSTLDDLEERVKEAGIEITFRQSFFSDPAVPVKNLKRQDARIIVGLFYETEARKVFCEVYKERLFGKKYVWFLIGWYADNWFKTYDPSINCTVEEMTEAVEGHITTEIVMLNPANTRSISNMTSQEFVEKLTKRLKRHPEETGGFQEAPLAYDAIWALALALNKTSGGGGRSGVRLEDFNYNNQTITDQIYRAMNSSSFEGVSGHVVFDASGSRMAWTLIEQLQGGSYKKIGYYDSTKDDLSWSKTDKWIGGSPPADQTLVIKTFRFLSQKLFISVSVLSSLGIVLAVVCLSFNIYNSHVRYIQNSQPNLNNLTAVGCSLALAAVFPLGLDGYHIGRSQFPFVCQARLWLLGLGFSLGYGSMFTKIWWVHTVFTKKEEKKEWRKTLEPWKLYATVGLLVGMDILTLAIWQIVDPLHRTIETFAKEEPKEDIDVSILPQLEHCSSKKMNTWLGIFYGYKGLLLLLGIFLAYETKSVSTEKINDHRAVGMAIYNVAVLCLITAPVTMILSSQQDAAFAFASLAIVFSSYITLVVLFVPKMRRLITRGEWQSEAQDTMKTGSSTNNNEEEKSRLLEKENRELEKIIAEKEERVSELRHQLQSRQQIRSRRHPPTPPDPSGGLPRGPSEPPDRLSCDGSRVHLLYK
T4 sequence (Q80T41 whole entry partner): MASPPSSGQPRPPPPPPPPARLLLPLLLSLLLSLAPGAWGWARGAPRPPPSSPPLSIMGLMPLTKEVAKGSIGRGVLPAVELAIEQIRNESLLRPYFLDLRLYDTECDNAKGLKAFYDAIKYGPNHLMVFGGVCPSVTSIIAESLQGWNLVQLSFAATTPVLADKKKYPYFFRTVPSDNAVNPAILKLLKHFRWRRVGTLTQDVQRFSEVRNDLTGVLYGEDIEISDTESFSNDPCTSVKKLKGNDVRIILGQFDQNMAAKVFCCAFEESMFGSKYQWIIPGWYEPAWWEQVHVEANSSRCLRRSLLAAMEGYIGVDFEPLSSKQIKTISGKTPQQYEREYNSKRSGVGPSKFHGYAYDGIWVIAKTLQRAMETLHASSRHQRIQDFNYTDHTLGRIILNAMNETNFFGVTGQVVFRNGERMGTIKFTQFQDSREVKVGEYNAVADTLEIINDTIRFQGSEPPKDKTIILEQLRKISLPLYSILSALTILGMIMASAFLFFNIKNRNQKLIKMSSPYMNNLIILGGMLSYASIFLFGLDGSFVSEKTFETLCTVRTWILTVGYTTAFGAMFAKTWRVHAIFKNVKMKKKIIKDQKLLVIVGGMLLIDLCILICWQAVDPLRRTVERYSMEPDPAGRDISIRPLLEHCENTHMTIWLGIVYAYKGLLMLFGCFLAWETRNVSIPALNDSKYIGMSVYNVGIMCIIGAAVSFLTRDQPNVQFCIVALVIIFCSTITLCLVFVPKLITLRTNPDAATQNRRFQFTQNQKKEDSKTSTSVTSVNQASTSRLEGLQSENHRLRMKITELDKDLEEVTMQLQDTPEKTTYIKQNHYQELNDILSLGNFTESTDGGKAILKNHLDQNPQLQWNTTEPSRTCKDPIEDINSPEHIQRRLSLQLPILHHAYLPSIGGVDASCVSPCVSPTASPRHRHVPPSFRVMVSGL
T1 sequence (Q9WV18 whole entry): as the sequence (Q9WV18 whole entry) above
T1 sequence (Q80T41 whole entry partner): as the sequence (Q80T41 whole entry partner) above
T5 sequence (Q9WV18 whole entry): as the sequence (Q9WV18 whole entry) above
T5 sequence (Q80T41 whole entry partner): as the sequence (Q80T41 whole entry partner) above
T2 sequence (P47746 whole entry): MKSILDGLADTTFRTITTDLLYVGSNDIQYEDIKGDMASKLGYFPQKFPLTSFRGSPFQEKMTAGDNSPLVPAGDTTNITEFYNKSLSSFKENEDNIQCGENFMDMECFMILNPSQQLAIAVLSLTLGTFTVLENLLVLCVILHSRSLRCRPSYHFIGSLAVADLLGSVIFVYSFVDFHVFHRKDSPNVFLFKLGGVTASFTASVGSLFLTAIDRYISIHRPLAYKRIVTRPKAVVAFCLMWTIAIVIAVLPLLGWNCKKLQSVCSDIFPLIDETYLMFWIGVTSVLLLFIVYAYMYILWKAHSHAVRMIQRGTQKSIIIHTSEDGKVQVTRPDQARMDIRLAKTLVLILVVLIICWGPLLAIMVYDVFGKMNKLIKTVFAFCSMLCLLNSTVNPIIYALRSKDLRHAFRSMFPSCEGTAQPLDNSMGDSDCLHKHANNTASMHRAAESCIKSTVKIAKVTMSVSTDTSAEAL
T3 sequence (P47746 whole entry): as above
T6 sequence (Q9Z0U4 20-960): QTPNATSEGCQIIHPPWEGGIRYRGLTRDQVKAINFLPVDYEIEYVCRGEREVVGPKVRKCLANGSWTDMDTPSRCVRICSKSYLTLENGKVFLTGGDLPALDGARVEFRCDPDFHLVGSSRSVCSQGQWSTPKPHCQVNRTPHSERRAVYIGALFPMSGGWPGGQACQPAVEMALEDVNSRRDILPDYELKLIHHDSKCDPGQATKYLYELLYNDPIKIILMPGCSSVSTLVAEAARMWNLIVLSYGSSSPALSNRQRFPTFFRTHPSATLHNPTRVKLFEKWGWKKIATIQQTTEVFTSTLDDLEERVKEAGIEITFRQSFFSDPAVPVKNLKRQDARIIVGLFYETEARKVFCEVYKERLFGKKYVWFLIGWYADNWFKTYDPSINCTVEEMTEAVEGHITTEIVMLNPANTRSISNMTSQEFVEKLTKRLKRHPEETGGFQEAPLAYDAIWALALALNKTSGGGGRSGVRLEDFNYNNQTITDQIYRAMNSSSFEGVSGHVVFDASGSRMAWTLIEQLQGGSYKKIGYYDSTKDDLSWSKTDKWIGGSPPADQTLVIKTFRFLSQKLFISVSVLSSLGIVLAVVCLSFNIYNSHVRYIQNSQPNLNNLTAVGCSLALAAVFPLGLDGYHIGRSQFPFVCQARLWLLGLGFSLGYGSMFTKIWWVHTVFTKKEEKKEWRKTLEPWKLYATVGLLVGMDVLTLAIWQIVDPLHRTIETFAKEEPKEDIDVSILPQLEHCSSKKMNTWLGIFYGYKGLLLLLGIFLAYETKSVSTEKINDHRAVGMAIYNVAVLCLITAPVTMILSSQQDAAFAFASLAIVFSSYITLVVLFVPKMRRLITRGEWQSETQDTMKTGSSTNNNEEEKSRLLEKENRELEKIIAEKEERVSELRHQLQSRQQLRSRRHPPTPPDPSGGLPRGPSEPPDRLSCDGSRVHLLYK
T6 sequence (O88871 41-940 partner): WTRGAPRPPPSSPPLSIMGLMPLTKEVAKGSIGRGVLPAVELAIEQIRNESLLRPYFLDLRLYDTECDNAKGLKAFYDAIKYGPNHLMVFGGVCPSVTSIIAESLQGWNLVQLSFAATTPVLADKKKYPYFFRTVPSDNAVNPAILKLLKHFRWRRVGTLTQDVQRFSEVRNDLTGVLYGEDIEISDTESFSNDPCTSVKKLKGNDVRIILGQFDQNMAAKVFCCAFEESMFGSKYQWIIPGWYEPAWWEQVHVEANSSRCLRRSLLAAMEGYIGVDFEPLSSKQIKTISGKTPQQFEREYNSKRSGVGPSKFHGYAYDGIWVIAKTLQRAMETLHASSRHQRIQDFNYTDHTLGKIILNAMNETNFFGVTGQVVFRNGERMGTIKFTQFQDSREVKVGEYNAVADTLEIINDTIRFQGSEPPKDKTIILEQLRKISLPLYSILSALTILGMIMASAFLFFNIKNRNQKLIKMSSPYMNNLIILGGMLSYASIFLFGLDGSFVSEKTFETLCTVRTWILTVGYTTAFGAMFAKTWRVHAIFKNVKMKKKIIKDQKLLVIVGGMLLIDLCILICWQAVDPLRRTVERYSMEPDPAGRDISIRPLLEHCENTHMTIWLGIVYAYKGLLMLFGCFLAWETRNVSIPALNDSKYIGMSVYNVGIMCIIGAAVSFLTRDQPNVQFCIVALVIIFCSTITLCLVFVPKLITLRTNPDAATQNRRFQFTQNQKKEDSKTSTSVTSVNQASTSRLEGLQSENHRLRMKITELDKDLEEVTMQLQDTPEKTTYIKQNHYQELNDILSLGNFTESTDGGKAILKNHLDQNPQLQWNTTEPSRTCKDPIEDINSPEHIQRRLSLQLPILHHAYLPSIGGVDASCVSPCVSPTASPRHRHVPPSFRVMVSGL

As for `C[C@@H](NC[C@H](O)CP(=O)(O)CCCCCNC(=O)CCc1ccc(O)c(I)c1)c1cccc(C(=O)O)c1` [CGP64213], the IC50 in assay [1] (Gi1 sensor) was 28.2 nM; in assay [1] (GoA sensor), 25.7 nM.
As for `CCCCCCC(C)(C)c1ccc([C@@H]2C[C@H](O)CC[C@H]2CCCO)c(O)c1` [CP 55940], the EC50 in assay [2] (pEC50 ± SEM (n) / CP 55940, B=Gi1, G protein BRET sensor (Gi1 or GoA), CGNs) was 6.61 nM; in assay [2] (pEC50 ± SEM (n) / CP 55940, B=GoA, G protein BRET sensor (Gi1 or GoA), CGNs) it was 55 nM; in [3] (pEC50 ± SEM (n) / CP 55940, B=Gi1, G protein BRET sensor (Gi1 or GoA), transfected HEK293) it was 126 nM; in assay [3] (pEC50 ± SEM (n) / CP 55940, B=GoA, G protein BRET sensor (Gi1 or GoA), transfected HEK293), 166 nM.
For `N#Cc1c(Oc2cccc(OS(=O)(=O)CCCC(F)(F)F)c2)cccc1C(F)(F)F` [Bay 59-3074], in [4], the “Emax ± SEM (n) / Bay 59-3074” value was 70.7 ± 1.1 (4) and 42.1 ± 3.9 (3). The EC50 in assay [2] (pEC50 ± SEM (n) / Bay 59-3074) is 339 nM and 631 nM; in assay [3] (pEC50 ± SEM (n) / Bay 59-3074), 708 nM and 1170 nM. The Emax in assay [5] (HEK293, B=Gi1, % of maximum response of reference agonist) worked out at 50.3%; in assay [5] (HEK293, B=GoA, % of maximum response of reference agonist) it was 56.3%.
In the case of `NCC(CC(=O)O)c1ccc(Cl)cc1` (stereo not drawn) [baclofen], the EC50 was 1120 nM in assay [6] (Gi1 sensor); 1780 nM in assay [6] (GoA sensor); 1020 nM in assay [7] (Gi1 sensor); 2630 nM in assay [7] (GoA sensor); 4790 nM in assay [8] (Gi1 sensor); 2690 nM in assay [8] (GoA sensor).
Regarding `CP(=O)(O)CCCN` [SKF 97541], the EC50 was 302 nM in assay [6] (Gi1 sensor); 603 nM in assay [6] (GoA sensor); 229 nM in [7] (Gi1 sensor); 692 nM in [7] (GoA sensor); 2340 nM in assay [8] (Gi1 sensor); 2040 nM in assay [8] (GoA sensor).
On to `NCCC[PH](=O)O` [APPA], for which the EC50 in [9] (pEC50 HEK293, Gi1 sensor) was 21.4 nM; in assay [9] (pEC50 HEK293, GoA sensor), 17 nM; in assay [8] (Gi1 sensor), 741 nM; in assay [8] (GoA sensor), 692 nM.
